Assay results: paper PMC10494966 (RSC Advances, 2023)

Molecular target: T1, Pancreatic lipase (Sus scrofa, UniProt P00591)
T1 sequence (P00591 1-450): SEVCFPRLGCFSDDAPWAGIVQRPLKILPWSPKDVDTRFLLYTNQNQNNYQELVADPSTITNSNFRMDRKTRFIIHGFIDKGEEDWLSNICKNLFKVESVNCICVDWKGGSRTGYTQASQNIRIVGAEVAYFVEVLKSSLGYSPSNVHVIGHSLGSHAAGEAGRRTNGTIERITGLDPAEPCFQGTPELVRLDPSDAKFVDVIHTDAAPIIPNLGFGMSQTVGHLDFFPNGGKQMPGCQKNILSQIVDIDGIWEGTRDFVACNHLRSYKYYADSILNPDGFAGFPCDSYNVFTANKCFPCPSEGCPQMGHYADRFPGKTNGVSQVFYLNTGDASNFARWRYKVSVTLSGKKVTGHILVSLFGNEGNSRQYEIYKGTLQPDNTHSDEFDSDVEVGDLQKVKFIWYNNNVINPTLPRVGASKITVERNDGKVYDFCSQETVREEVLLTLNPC
Experiment: spectrophotometric p-nitrophenyl palmitate hydrolysis, single concentration […]
Type: biochemical

Compound	inhibition at 250 µM [%]
COC(=O)c1c(O)cc(O)c2c1OC(c1ccc(O)cc1)C(O)C2 (stereo not shown) [compound 2, 5,7,4′-trihydroxy-8-methoxycarbonyl flavanol]	52
COc1cc2cc(Oc3ccc4ccc(=O)oc4c3)c(=O)oc2cc1O [compound 1, daphnoretin]	72
O=C1c2c(O)cc(O)cc2O[C@H](c2ccc(O)cc2)[C@@H]1[C@@H]1C(=O)c2c(O)cc(O)cc2O[C@@H]1c1ccc(O)cc1 [compound 3, neochamaejasmin A]	61.8
C[C@@H]1O[C@@H](OC[C@H]2O[C@@H](Oc3c(-c4ccc(O)c(O)c4)oc4cc(O)cc(O)c4c3=O)[C@H](O[C@@H]3O[C@@H](C)[C@H](O)[C@@H](O)[C@H]3O)[C@@H](O)[C@H]2O)[C@H](O)[C@H](O)[C@H]1O [compound 7, quercetin 3-O-α-L-rhamnopyranosyl-(1 → 2)-[α-L-rhamnopyranosyl-(1 → 6)]-β-D-galactopyranoside]	68
